The source of these data is patent publication US12507703B2, “Methods, devices and compositions for preserving human milk” (The Trustees of Princeton University, priority 2023, dated 2025).

Several values for one entry are separate records, joined by “and”; a condition that tells them apart may be missing. Identical values can stand only once.

In one assay the test system is lipase. The experiment in a line: Lipase/lipolysis assay (EnzChek Lipase Substrate, quenched BODIPY-fatty acid conjugate) on stored human milk. Also: test concentration or dose not given here.
Conditions: not given
Turning to `Cc1cc(O)cc2c1O[C@](C)(CCC[C@H](C)CCC[C@H](C)CCCC(C)C)CC2` [Delta-Tocopherol], the “Lipase (RFU)” value is reported as 1328.881 RFU.
The same measure, in the same setting: the result for `Cl.Cl.NCCc1c[nH]cn1` [Histamine (dihydrochloride)] reads 1022.007 RFU; that for `C[C@H](O)[C@H](O)c1cnc2nc(N)[nH]c(=O)c2n1` [Compound 6-Biopterin], 1286.983 RFU.
Still for that read-out and setting: in the case of `O=C(O)c1ccc(O)nc1` [6-Hydroxynicotinic acid] it was 655.7069 RFU; in that of `CC1=CCC(=O)O1` [α-Angelica lactone], 1137.248 RFU.
Same read-out and setting: the result for `C[C@@H]1CCCCCCCCCCCCC(=O)C1` [Muscone] reads 696.5228 RFU.
As for `NC(=O)NCCC(=O)O` [Ureidopropionic acid], the “Lipase (RFU)” value came to 1035.138 RFU.
The same measure, in the same setting: in the case of `COc1ccc([C@@H]2CC(=O)c3c(O)cc(O[C@@H]4O[C@H](CO)[C@@H](O)[C@H](O)[C@H]4O[C@@H]4O[C@@H](C)[C@H](O)[C@@H](O)[C@H]4O)cc3O2)cc1O` [Neohesperidin] it was 774.0784 RFU.
As to `CCCCCCCCCC=O` [Decyl aldehyde], the “Lipase (RFU)” value was 807.9785 RFU and 682.2968 RFU.
Same read-out and setting: the result for `CCOC(=O)c1ccc(O)c(OC)c1` [Ethyl Vanillate] reads 981.4431 RFU; that for β-Alanine, 882.8696 RFU and 1205.931 RFU; that for `COC(=O)[C@@]1(C)CC[C@]2(C(=O)O)CC[C@]3(C)C(=CC[C@@H]4[C@@]5(C)C[C@H](O)[C@H](O[C@@H]6OC[C@@H](O[C@@H]7O[C@H](CO)[C@@H](O)[C@H](O)[C@H]7O)[C@H](O)[C@H]6O)[C@@](C)(CO)[C@@H]5CC[C@]43C)[C@@H]2C1` [Esculentoside A], 755.0304 RFU.
Same read-out and setting: in the case of `CC(=O)O` [Acetic Acid] it was 1200.605 RFU; in that of `O=C(O)c1cc(O)c2c(c1)[C@H]([C@H]1c3cc(C(=O)O)cc(O)c3C(=O)c3c(O[C@@H]4O[C@H](CO)[C@@H](O)[C@H](O)[C@H]4O)cccc31)c1cccc(O[C@@H]3O[C@H](CO)[C@@H](O)[C@H](O)[C@H]3O)c1C2=O` [Sennoside A], 1002.323 RFU; in that of `CC(C)=CCC[C@](C)(O[C@@H]1O[C@H](CO)[C@@H](O)[C@H](O)[C@H]1O)[C@H]1CC[C@]2(C)[C@@H]1[C@H](O)C[C@@H]1[C@@]3(C)CC[C@H](O)C(C)(C)[C@@H]3[C@@H](O[C@@H]3O[C@H](CO)[C@@H](O)[C@H](O)[C@H]3O[C@@H]3OC[C@@H](O)[C@H](O)[C@H]3O)C[C@]12C` [Notoginsenoside R1], 899.6021 RFU.
Still for that read-out and setting: in the case of `CCCCCCCCC(=O)NCc1ccc(O)c(OC)c1` [Nonivamide] it was 911.9923 RFU and 1070.28 RFU; in that of `CC(C)(O[C@@H]1O[C@H](CO)[C@@H](O)[C@H](O)[C@H]1O)[C@H]1Oc2cc3oc(=O)ccc3cc2[C@H]1O` [Smyrindioloside], 1066.572 RFU; in that of `CC(C)=CCC[C@](C)(O[C@@H]1O[C@H](CO)[C@@H](O)[C@H](O)[C@H]1O)[C@H]1CC[C@]2(C)[C@@H]1[C@H](O)C[C@@H]1[C@@]3(C)CC[C@H](O)C(C)(C)[C@@H]3[C@@H](O)C[C@]12C` [Ginsenoside F1], 975.1974 RFU.
With `CC(=O)[C@@]1(O)CC[C@H]2[C@@H]3CCC4=CC(=O)CC[C@]4(C)[C@H]3CC[C@@]21C` [17α-Hydroxyprogesterone], the “Lipase (RFU)” value was 867.6703 RFU.
On the same count and under the same terms, in the case of `O=P([O-])([O-])O[C@H]1O[C@H](CO)[C@H](O)[C@H](O)[C@H]1O.[K+].[K+]` [Galactose 1-phosphate Potassium salt] it was 1112.021 RFU; in that of `O=C([O-])O.[K+]` [Potassium bicarbonate], 726.638 RFU.
Same read-out and setting: in the case of `CC(C)=CC(=O)C[C@H](C)c1ccc(C)cc1` [ar-Turmerone] it was 1106.99 RFU.
Same read-out and setting: in the case of (−)-Epiafzelechin it was 915.141 RFU.
In the case of `NC(=O)NCCCC(N)C(=O)O` (centres unmarked) [2-Amino-5-ureidopentanoic acid], the “Lipase (RFU)” value stood at 983.9261 RFU.
Same read-out and setting: in the case of `COc1cc(-c2oc3cc(OC)c(OC)c(O)c3c(=O)c2OC)ccc1O` [Chrysosplenetin] it was 1129.025 RFU; in that of `O=C1c2ccc(O)cc2OCC1c1ccc(O)cc1` (centres unmarked) [Dihydrodaidzein], 682.5875 RFU; in that of `C[C@@]12C[C@H](c3ccoc3)O[C@@]13C[C@H](OC3=O)[C@H]1[C@H]2C[C@@H]2C[C@H]1C(=O)O2` [Diosbulbin B], 951.5417 RFU.
On to `C/C=C/c1cc(OC)c(OC)cc1OC` [alpha-Asarone], for which the “Lipase (RFU)” value stood at 956.156 RFU.
The same measure, in the same setting: the result for `Nc1ncnc2c1ncn2C1OC(CO)C2OP(=O)(O)OC21` (centres unmarked) [Adenosine-2′,3′-cyclic monophosphate] reads 828.2019 RFU; that for D-Pantothenic acid (hemicalcium salt), 932.4036 RFU; that for `OC[C@H]1O[C@@](CO)(OC[C@@]2(O[C@H]3O[C@H](CO)[C@@H](O)[C@H](O)[C@H]3O)O[C@H](CO)[C@@H](O)[C@@H]2O)[C@@H](O)[C@@H]1O` [Compound 1-Kestose], 1115.168 RFU.
Still for that read-out and setting: the result for `Cc1ccc(C=O)cc1` [p-Tolualdehyde] reads 1029.761 RFU; that for `O=C(CO)[C@H](O)[C@H](O)[C@H](O)CO` [D-Psicose], 990.8733 RFU.
Same read-out and setting: in the case of `COc1cc([C@@H]2Oc3c(O)cc([C@H]4Oc5cc(O)cc(O)c5C(=O)[C@@H]4O)cc3[C@H]2CO)ccc1O` [Silychristin] it was 921.666 RFU; in that of `CCCCCCCCCCCCC/C=C/[C@@H](O)[C@@H](N)CO` [D-erythro-Sphingosine], 823.3956 RFU; in that of `OC[C@@H](O)[C@H](O)[C@H](O)[C@@H](O)CO` [Dulcite], 1020.567 RFU.
On to `CCCCC/C=C/C/C=C/CCCCCCCC(=O)O` [Linolelaidic acid], for which the “Lipase (RFU)” value is given as 831.2921 RFU.
On to `CC(C(=O)O)C(=O)O` [Methylmalonic acid], for which the “Lipase (RFU)” value was found to be 883.2913 RFU.
On the same count and under the same terms, in the case of `CCCCCCCCO` [Compound 1-Octanol] it was 882.5398 RFU; in that of `O=S(=O)([O-])c1ccc2c(N=Nc3ccc(S(=O)(=O)[O-])c4ccccc34)c(O)c(S(=O)(=O)[O-])cc2c1.[Na+].[Na+].[Na+]` [Amaranth], 987.0531 RFU.
As for `O=C1C[C@@H](C(=O)O)NC(=O)N1` [L-Dihydroorotic acid], the “Lipase (RFU)” value is recorded as 1002.656 RFU.
As to `COc1cc(CC(=O)C(=O)O)ccc1O` [Vanilpyruvic acid], the “Lipase (RFU)” value is on record as 1086.418 RFU.
With `COc1cc2oc(=O)ccc2c(OC)c1O` [Fraxinol], the “Lipase (RFU)” value is recorded as 772.0122 RFU.
Same read-out and setting: in the case of `CC(C)(O)[C@@H]1Cc2cc3ccc(=O)oc3cc2O1` [S-(+)-Marmesin] it was 984.7966 RFU.
Still for that read-out and setting: in the case of `CC[C@H]1OC(=O)C[C@@H](O)[C@H](C)[C@@H](O[C@@H]2O[C@H](C)[C@@H](O[C@H]3C[C@@](C)(O)[C@@H](O)[C@H](C)O3)[C@H](N(C)C)[C@H]2O)[C@@H](CC=O)C[C@@H](C)C(=O)/C=C/C(C)=C/[C@@H]1CO[C@@H]1O[C@H](C)[C@@H](O)[C@@H](OC)[C@H]1OC.O=C(O)C(O)C(O)C(=O)O` [Tylosin (tartrate)] it was 942.0391 RFU.
On the same count and under the same terms, the result for `CC(C)=CCC[C@](C)(O)[C@H]1CC[C@]2(C)[C@@H]1[C@H](O)C[C@@H]1[C@@]3(C)CC[C@H](O[C@@H]4O[C@H](CO)[C@@H](O)[C@H](O)[C@H]4O[C@@H]4O[C@H](CO)[C@@H](O)[C@H](O)[C@H]4O)C(C)(C)[C@@H]3CC[C@]12C` [20(S)-Ginsenoside Rg3] reads 979.4673 RFU; that for `O=C(O)CC(O)(C(=O)O)C(O)C(=O)O` (centres unmarked), 1053.487 RFU.
As to `O=Cc1cc(O)c(O)c(O)c1` [Gallic aldehyde], the “Lipase (RFU)” value was found to be 942.9255 RFU.
Same read-out and setting: in the case of `NC(=O)NCCCC[C@H](N)C(=O)O` [L-Homocitrulline] it was 822.9997 RFU.
For the compound Lignin, the “Lipase (RFU)” value stood at 849.2641 RFU.
The same measure, in the same setting: in the case of `N[C@@H](CNC(=O)C(=O)O)C(=O)O` [Dencichine] it was 1365.261 RFU; in that of `OC[C@@H](O)C(O)[C@H](O)CO` [D-Arabitol], 977.3738 RFU and 986.8626 RFU; in that of `O=c1cc(-c2ccc(O)cc2)oc2c([C@@H]3O[C@H](CO)[C@@H](O)[C@H](O)[C@H]3O)c(O)c([C@@H]3O[C@H](CO)[C@@H](O)[C@H](O)[C@H]3O)c(O)c12` [Vicenin 2], 893.9745 RFU.
The same measure, in the same setting: in the case of `COc1cc2c(CCNC(C)=O)c[nH]c2cc1O` [Compound 6-Hydroxymelatonin] it was 976.0382 RFU; in that of `CC(C)CCC[C@@H](C)[C@H]1CC[C@H]2[C@@H]3CCC4=CC(=O)CC[C@]4(C)[C@H]3CC[C@]12C` [Cholestenone], 787.5717 RFU; in that of `C/C1=C2/[N-][C@H]([C@H](CC(N)=O)[C@@]2(C)CCC(=O)NC[C@@H](C)OP(=O)([O-])O[C@H]2[C@@H](O)[C@@H](n3cnc4cc(C)c(C)cc43)O[C@@H]2CO)[C@]2(C)N=C(/C(C)=C3N=C(/C=C4N=C1[C@@H](CCC(N)=O)C\4(C)C)[C@@H](CCC(N)=O)[C@]\3(C)CC(N)=O)[C@@H](CCC(N)=O)[C@]2(C)CC(N)=O.[CH2-][C@H]1O[C@@H](n2cnc3c(N)ncnc32)[C@H](O)[C@@H]1O.[Co]` [Adenosylcobalamin], 817.3471 RFU.
Still for that read-out and setting: in the case of `COc1cc(OC)c(OC)cc1C=O` [Asaraldehyde] it was 982.6997 RFU; in that of `CCCCCCCCCCCC(=O)O[C@H](CC(=O)[O-])C[N+](C)(C)C` [Dodecanoylcarnitine], 868.7983 RFU.
Consider `C/C=C/C=C/C=C\CC/C=C/C(=O)NCC(C)(C)O` [Hydroxy-α-sanshool], for which the “Lipase (RFU)” value was found to be 984.0163 RFU.
On the same count and under the same terms, the result for `NCCP(=O)(O)O` [2-Aminoethyl Phosphonic Acid] reads 863.4665 RFU; that for `Cc1nc2ccccc2o1` [Compound 2-Methylbenzoxazole, 2-Methylbenzoxazole], 887.776 RFU.

Staying with this assay, now noted: (monohydrate).
On to `C[C@H](O)[C@H](O)[C@@H](O)[C@@H](O)C=O.O` [Rhamnose (monohydrate)], for which the “Lipase (RFU)” value is 978.8722 RFU and 922.0222 RFU.
